Measurements reported in patent publication US6930088B2, “Conformationally constrained backbone cyclized somatostatin analogs” (Peptor Ltd., priority 1998, dated 2005).
Entries after “also recorded” stand apart in the source; their conditions may differ.

How the values were obtained:
[1] = tested on: human Carcinoid BON-1 cells; assay: Inhibition of cAMP in human Carcinoid BON-1 cells; assay type: cell-based; conditions: following Forskolin stimulation
Description: The activation of SST-R5 leads to the reduction of Adenylate Cyclase activity. Somatostatin receptors including type-5 receptors are expressed in the human Carcinoid derived cell line BON-1. This human cell culture served as an in-vitro discovery assay for novel Carcinoid therapeutics. Interaction of somatostatin analogs with Somatostatin receptors expressed in this system subsequently affects cellular functionality of BON-1.

Opiate receptors = assay: NovaScreen nonspecific binding, Opiate receptors; conditions: tested at 100 nM; FIG. 2
Description: (§1) NovaScreen (Hanover, Md.) performed an assessment for nonspecific binding to various G-protein coupled receptor families. Binding studies to Neurokinin, Opiate and Muscarinic receptors were based on a comparison between the native hormone Somatostatin, Ocreotide and PTR 3173.

SSTR-5 = target: T1, SSTR-5 (Homo sapiens, UniProt P35346); assay: Inhibition of 125I-Tyr11-SRIF binding to membrane preparations expressing SSTR-5; conditions: read-out: Percent inhibition of SRIF-14 binding
T1 construct: expressed in transfected cells
Procedure: The receptor preparations used for these tests were either from the cloned human receptors selectively and stably expressed in Chinese Hamster Ovary (CHO) cells or from cell lines naturally expressing the SSTRs. […] The binding reactions were filtered, the filters were washed and the bound radioactivity was counted in gamma counter. Non specific binding was defined as the radioactivity remaining bound in the presence of 1 μM unlabeled SRIF-14.
(§2) In order to validate positive signals of the binding tests, and to eliminate non-specific signals, samples of irrelevant peptides, such as GnRH, that were synthesized and handled using the same procedures, were tested in the same assays as negative control samples. These samples had no binding activity in any of the assays. Results are shown below in Tables 5 and 6 and FIG. 1.

SSTR-4 = target: T2, SSTR-4 (Homo sapiens, UniProt P31391); assay: Inhibition of 125I-Tyr11-SRIF binding to membrane preparations expressing SSTR-4; conditions: SSTR-R4, read-out: Percent inhibition of SRIF-14 binding
T2 construct: expressed in transfected cells
Procedure: (§3) The somatostatin analogs were tested for their potency in inhibition of the binding of ^125I-Tyr^11-SRIF (based on the method described by Raynor et. al., Molecular Pharmacology, 1993, 43, 838-844) to membrane preparations expressing the transmembranal somatostatin receptors (SSTR-1, 2, 3, 4 or 5). The receptor preparations used for these tests were either from the cloned human receptors selectively and stably expressed in Chinese Hamster Ovary (CHO) cells or from cell lines naturally expressing the SSTRs. Typically, cell membranes were homogenated in Tris buffer in the presence of protease inhibitors and incubated for 30-40 minutes with ^125I-Tyr^11-SRIF with different concentrations of the tested sample. The binding reactions were filtered, the filters were washed and the bound radioactivity was counted in gamma counter. Non specific binding was defined as the radioactivity remaining bound in the presence of 1 μM unlabeled SRIF-14.
as §2

[2] = tested on: human peripheral blood lymphocytes (PBL); assay: Human PBL proliferation assay (mitogenicity); assay type: cell-based; conditions: PBL proliferation assays
Description: PTR 3173 was furthermore found to be not mitogenic for human lymphocytes in human peripheral blood lymphocytes (PBL) proliferation assays.

[3] = Initial safety testing in dogs; assay type: in vivo; conditions: dose 10,000-fold higher then the efficacious dose for inhibiting Growth hormone release
Procedure: (§4) PTR 3173 was tested in various species for its initial safety properties. Under the European Pharmacopoeia requirements for safety testing, it was declared a safe drug candidate at this stage of development.

[4] = tested on: Chromogranin A release from BON-1; assay: Inhibition of Chromogranin A release from BON-1; assay type: cell-based; conditions: human Carcinoid cell line BON-1
Description: Assessment of Chromogranin A release from BON-1 is an important assay aimed at identifying potential anti Carcinoid drugs. Chromagranin A is one of the principal mediators in degranulation of tumor granules, which secrete excessive amounts of vasoactive substances from Carcinoid tumors.

[5] = In vitro biostability in renal homogenate (HPLC)
Procedure: The assay was based on HPLC determination of peptide degradation as a function of time in renal homogenate at 37° C.

[6] = Initial safety testing in rodents; assay type: in vivo; conditions: dose 10,000-fold higher then the efficacious dose for inhibiting Growth hormone release
Procedure: as §4

[7] = Metabolic bio-stability against degradation by enzyme mixtures; assay type: in vitro ADME; conditions: in words; renal homogenate, rat liver homogenate and human serum
insulin release = assay: In-vivo effect on insulin release; parameters: species or system Wistar male rats
Procedure: Insulin stimulation was induced by IV bolus administration of D-glucose to overnight fasted rats.
An in-vivo determination of insulin release as a result of peptide administration was measured in Wistar male rats. […] Time course profiles for […] release under constant experimental conditions were measured.
Male Wistar rats were fasted overnight. Animals were anesthetized with Nembutal (IP, 60 mg/kg). Ten minutes after anesthesia, drugs were administrated S.C. at 0.01-100 microgram/kg dose 30 minutes before stimulation of insulin secretion performed by I.V. administration of 0.5 g/kg of D-glucose, 5 minutes before blood collection from abdominal Vena-cava. Hormone levels wer measured by RIA.

[8] = tested on: CHO cells expressing human cloned SST-R5; assay: In-vitro cell-growth inhibition; assay type: cell-based
Procedure: Pharmacological evaluation of growth inhibition was performed utilizing CHO cells expressing human cloned SST-R5.

SSTR-1 = target: T3, SSTR-1 (Homo sapiens, UniProt P30872); assay: Inhibition of 125I-Tyr11-SRIF binding to membrane preparations expressing SSTR-1; conditions: read-out: Percent inhibition of SRIF-14 binding
T3 construct: expressed in transfected cells
Procedure: as §3, with “Typically, cell membranes were homogenated in Tris buffer in the presence of protease inhibitors and incubated for 30-40 minutes with ^125I-Tyr^11-SRIF with different concentrations of the tested sample.” left out
as §2

[9] = tested on: other G-protein coupled receptors; assay: Binding to non-somatostatin G-protein coupled receptors; conditions: screening vs. Octreotide and SRIF
Description: This characteristic is of great advantageous because binding to non-somatostatin receptors could cause potential adverse effects in the body.
as §1

[10] = kidney or brush border membranes

T3 sequence (P30872 whole entry): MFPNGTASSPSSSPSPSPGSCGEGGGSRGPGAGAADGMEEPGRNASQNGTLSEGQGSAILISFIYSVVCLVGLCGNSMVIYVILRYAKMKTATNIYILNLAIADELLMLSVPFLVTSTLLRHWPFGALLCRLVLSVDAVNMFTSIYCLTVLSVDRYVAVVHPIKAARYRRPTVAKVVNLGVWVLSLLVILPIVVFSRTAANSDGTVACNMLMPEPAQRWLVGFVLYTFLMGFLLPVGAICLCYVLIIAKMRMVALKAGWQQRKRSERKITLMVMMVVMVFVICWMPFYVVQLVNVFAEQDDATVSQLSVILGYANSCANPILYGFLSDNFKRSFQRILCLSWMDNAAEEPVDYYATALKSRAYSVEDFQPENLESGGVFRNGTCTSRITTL
T1 sequence (P35346 whole entry): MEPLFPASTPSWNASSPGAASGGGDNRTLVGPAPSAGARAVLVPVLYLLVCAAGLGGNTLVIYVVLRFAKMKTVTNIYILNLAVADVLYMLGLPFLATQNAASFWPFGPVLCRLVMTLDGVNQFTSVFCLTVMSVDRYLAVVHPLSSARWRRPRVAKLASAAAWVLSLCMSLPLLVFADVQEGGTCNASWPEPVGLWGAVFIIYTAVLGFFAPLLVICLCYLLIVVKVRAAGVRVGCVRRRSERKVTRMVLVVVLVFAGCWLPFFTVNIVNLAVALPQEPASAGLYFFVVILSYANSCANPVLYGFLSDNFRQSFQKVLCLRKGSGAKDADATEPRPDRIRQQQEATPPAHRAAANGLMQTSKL
T2 sequence (P31391 whole entry): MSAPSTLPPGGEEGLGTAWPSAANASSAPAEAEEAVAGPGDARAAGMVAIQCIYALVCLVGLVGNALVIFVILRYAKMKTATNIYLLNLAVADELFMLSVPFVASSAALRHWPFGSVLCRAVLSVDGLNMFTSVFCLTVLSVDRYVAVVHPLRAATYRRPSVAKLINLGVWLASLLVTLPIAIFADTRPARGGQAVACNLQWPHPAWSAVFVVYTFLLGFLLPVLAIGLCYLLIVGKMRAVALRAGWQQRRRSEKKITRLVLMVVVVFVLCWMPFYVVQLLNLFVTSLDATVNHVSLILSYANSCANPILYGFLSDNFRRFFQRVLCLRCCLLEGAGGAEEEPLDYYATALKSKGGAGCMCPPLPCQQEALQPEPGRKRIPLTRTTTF

For `C[C@@H](O)[C@@H]1NC(=O)[C@H](CCCCN)NC(=O)[C@@H](Cc2c[nH]c3ccccc23)NC(=O)[C@H](Cc2c[nH]c3ccccc23)NC(=O)[C@H](Cc2ccccc2)NC(=O)CCCNC(=O)CCCN(CC(N)=O)C(=O)[C@H](Cc2ccccc2)NC1=O` [PTR 3173, GABA*-Phe-Trp-(D)Trp-Lys-Thr-Phe-Gly(C3)-X], the “inhibition of cAMP production” value [1] was “equipotent to clinically used drug Octreotide”, the “binding to Opiate receptors” value (Opiate receptors) was “did not bind” and the inhibition at 10 pM (SSTR-5) was 20%. It also gave an inhibition at 0.0001 µM (SSTR-5) of 48%, an inhibition at 0.001 µM (SSTR-5) of 63% and an inhibition at 0.01 µM (SSTR-5) of 82%. It also gave an inhibition at 0.1 µM (SSTR-5) of 95%, an inhibition at 1 µM (SSTR-5) of 95% and an inhibition at 1 µM (SSTR-4; 10^−6 M) of 5%. For the same molecule, the inhibition at 0.1 µM (SSTR-4; 10^−7 M) was 5%, the inhibition at 0.01 µM (SSTR-4; 10^−8 M) was 0% and the inhibition at 0.001 µM (SSTR-4; 10^−9 M) was 0%. The inhibition at 0.0001 µM (SSTR-4; 10^−10 M) was 0%, the inhibition at 10 pM (SSTR-4; 10^−11 M) was 0% and the “mitogenicity for human lymphocytes” value [2] was “not mitogenic”. The toxicity signs [3] was “No toxicity signs”, the “inhibition of Chromogranin A release” value [4] was “inhibits Chromogranin A release; also recorded: significant anti-release effect; also recorded: equivalent potency with the native hormone Somatostatin” and the “Percent of intact molecule after incubation in renal homogenate” value ([5]; Time 0 hrs, 37° C.) was 100%. The remaining at 1 h [5, 10] was 100%, the remaining at 3 h [5, 10] was 100% and the remaining at 24 h [5, 10] was 100%. The toxicity signs [6] was “No toxicity signs”, the “metabolic bio-stability against degradation by enzymes” value [7] was “considerable metabolic bio-stability against degradation by enzymes” and the “effect on insulin release” value (insulin release; 100 micrograms per kilogram, D-glucose stimulation, FIG. 5a) was “inactive on insulin”. The “Insulin ID50” value (insulin release; Table 4, physiological selectivity) was over 1 mg/kg, the “effect on insulin release” value (insulin release; dose of up to 1 milligram per kilogram, FIG. 5b) was “no appreciable effect on insulin” and the “effect on insulin (general statement)” value (insulin release; in words, no dose stated) was “lacks the disadvantages of Octreotide such as inhibition of Insulin secretion; also recorded: no considerable effect on insulin”. For the same molecule, the GH/Insulin (insulin release; ratio of ID50 values, Table 4) was >10,000, the growth inhibition [8] was “significant growth inhibition; also recorded: considerably higher potency of growth inhibition compared to the native hormone and the drug Octreotide” and the inhibition at 10 pM (SSTR-1) was 0%. The inhibition at 0.0001 µM (SSTR-1) was 0%, the inhibition at 0.001 µM (SSTR-1) was 0% and the inhibition at 0.01 µM (SSTR-1) was 0%. The inhibition at 0.1 µM (SSTR-1) was 5%, the inhibition at 1 µM (SSTR-1) was 15% and the “binding to other G-protein coupled receptors” value [9] was “binds significantly less other G-protein coupled receptors than Octreotide”.
